The values that follow are results of earlier work, collected in patent US7745427B2, “CGRP receptor antagonists” (Merck Sharp & Dohme Corp., priority 2004, dated 2010).

For series [1], the system named is acute attacks of migraine. The note with it: clinical trials; Olesen et al. 2004.
In series [2] the test system is facial blood flow. The note with it: marmoset; Doods et al. 2000.
Series [3] has as its system facial blood flow. The note with it: rat; Escott et al. 1995.
For the next series, the system named is middle meningeal artery. The note with it: rats, prior administration; Williamson et al. 1997.

No end group written: not given here.

As to `NCCCC[C@H](NC(=O)[C@@H](Cc1cc(Br)c(O)c(Br)c1)NC(=O)N1CCC(N2Cc3ccccc3NC2=O)CC1)C(=O)N1CCN(c2ccncc2)CC1` [BIBN4096BS], the “treating acute attacks of migraine” value in series [1] is “effective”. The “increase in facial blood flow” value in the series on facial blood flow [2] is listed as “blocked”.

As to “CGRP(8-37): "a peptide CGRP antagonist" (VTHRLAGLLSRSGGVVKNNFVPTNVGSKAF; ends and bridges not checked; UniProt P06881 90-119, looked up, fragment)”, the “increased facial blood flow” value with facial blood flow [3] was “inhibited”. Also, the “increase in diameter of the middle meningeal artery” value with middle meningeal artery is recorded as “blocked”.
